The structures appear in SMILES notation. Read-outs that look alike come from different tables or passages of the source.

The source of these data is patent publication US8236792B2, “Substituted pyrrolidine amides as modulators of the histamine H3 receptor” (Janssen Pharmaceutica NV, priority 2008, dated 2012).

Assay [1] concerns the target T1, cloned human H3 receptors (Homo sapiens, UniProt Q9Y5N1).
T1 construct: expressed in transfected cells
Kind of assay: H3 Receptor Binding (Human) Method 1. As to conditions: receptor stably expressed in SK-N-MC cells, free base forms, average of results.

For assay [2], the target named is T2, human H3 receptor (Homo sapiens, UniProt Q9Y5N1). Kind of assay: H3 Receptor Binding (Human) Method 2, [125I]-iodoproxyfan competitive radioligand binding. Further details: expressed in transfected cells.
Experimental: SK-N-MC cells expressing the human H3 receptor were grown to confluence and tissue culture plates, washed with phosphate-buffered saline, and scraped into 50 mL tubes. After centrifugation, the supernatant was aspirated, and the pellets frozen and stored at −80° C. […] The homogenate was centrifuged at 25000×g for 25 min. […] Reactions were stopped by filtration through GF/B filter plates pre-soaked in 0.3% polyethylenimine and subsequently washed with Tris 50 mM, 5 mM EDTA buffer. Plates were dried for 1 h in a 55° C. oven. Scintillation fluid was added and the radioactivity was counted in a Packard TopCount. Non-specific binding to the H3 receptor was defined by radioactivity that was bound in the presence of 100 μM histamine.
(§1) Compounds were tested in their free base or hydrochloride salt forms.
Another assay has as its target T3, cloned rat H3 receptors (Rattus norvegicus, UniProt Q9QYN8).
T3 construct: expressed in transfected cells
Kind of assay: H3 Receptor Binding (Rat).

For a further assay, the target named is T4, rat H3 receptor (Rattus norvegicus, UniProt Q9QYN8).
T4 construct: expressed in transfected cells; host or cells: SK-N-MC sublines with a reporter construct
Kind of assay: Cyclic AMP Accumulation (rat H3 reporter subline). The assay is classed as cell-based.

For assay [3], the target named is T2, human H3 receptor. Kind of assay: Cyclic AMP Accumulation (human H3 reporter subline). The format is cell-based. As to conditions: SK-N-MC subline with reporter construct and human H3 receptor, free base or trifluoroacetate salt, average. Set-up: expressed in transfected cells; host or cells: SK-N-MC sublines with a reporter construct.
Experimental: Sublines of SK-N-MC cells were created that expressed a reporter construct and either the human or rat H3 receptor. […] Compounds were tested in their free base or trifluoroacetate salt forms.
Setting [4] is: receptor stably expressed in SK-N-MC cells, free base or hydrochloride salt, average of results, read-out: Rat H3 Ki.
The mark [5] stands for this setting: SK-N-MC subline with reporter construct and rat H3 receptor, free base or trifluoroacetate salt, average, read-out: Rat pA2 (converted).
Setting [6] is: SK-N-MC subline with reporter construct and rat H3 receptor, free base or trifluoroacetate salt, average.

T2 sequence (Q9Y5N1 whole entry): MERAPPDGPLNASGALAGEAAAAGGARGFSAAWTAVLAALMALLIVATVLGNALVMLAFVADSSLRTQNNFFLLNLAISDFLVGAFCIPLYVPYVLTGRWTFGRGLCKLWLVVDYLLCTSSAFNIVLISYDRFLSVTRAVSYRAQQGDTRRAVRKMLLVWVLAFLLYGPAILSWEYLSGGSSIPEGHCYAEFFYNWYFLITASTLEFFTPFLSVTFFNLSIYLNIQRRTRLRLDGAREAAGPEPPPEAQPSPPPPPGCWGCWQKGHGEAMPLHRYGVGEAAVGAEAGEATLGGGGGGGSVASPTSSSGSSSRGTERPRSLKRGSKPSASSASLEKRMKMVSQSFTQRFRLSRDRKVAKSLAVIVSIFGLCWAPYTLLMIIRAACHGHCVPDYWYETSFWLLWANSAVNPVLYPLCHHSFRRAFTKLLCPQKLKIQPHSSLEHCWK
T1 sequence (Q9Y5N1 whole entry): as above
T3 sequence (Q9QYN8 whole entry): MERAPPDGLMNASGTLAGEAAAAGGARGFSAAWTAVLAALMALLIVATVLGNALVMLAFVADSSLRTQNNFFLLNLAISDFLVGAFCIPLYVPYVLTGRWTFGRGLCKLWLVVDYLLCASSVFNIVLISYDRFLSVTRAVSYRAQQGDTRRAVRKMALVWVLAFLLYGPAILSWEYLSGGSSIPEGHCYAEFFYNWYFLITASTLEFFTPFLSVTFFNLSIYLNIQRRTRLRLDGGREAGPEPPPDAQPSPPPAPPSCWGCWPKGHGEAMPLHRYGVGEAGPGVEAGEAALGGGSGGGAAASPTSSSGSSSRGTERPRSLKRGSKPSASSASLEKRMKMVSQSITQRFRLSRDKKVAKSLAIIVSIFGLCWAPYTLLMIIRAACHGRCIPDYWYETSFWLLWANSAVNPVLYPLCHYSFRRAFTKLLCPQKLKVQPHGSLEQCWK
T4 sequence (Q9QYN8 whole entry): as above
Experimental for cloned rat H3 receptors: Compounds were tested for binding to cloned rat H3 receptors, stably expressed in SK-N-MC cells.
as §1

The Ki is a dissociation constant, usually derived from enzyme kinetics or from competition with a known ligand. With `CC(C)(C)OC(=O)N1C[C@@H](Oc2ccc(C#N)cc2)C[C@@H]1C(=O)N1CCCN(C2CCC2)CC1` [Example 16, (2R,4S)-4-(4-Cyano-phenoxy)-2-(4-cyclobutyl-[1,4]diazepane-1-carbonyl)-pyrrolidine-1-carboxylic acid tert-butyl ester], the values for the inhibitory constant (Ki) (in assay [1]; at human H3 receptor [2] (read-out: Human H3 Ki)) were 3 nM and 2 nM, respectively.
In the case of `CC(C)(C)OC(=O)N1C[C@@H](Oc2cccc(F)c2)C[C@@H]1C(=O)N1CCCN(C2CCC2)CC1` [Example 17, (2R,4S)-2-(4-Cyclobutyl-[1,4]diazepane-1-carbonyl)-4-(3-fluoro-phenoxy)-pyrrolidine-1-carboxylic acid tert-butyl ester], the Ki (in assay [1]; on human H3 receptor [2] (read-out: Human H3 Ki)) was 3 nM throughout.
Take `CC(C)(C)OC(=O)N1C[C@@H](Oc2ccccc2)C[C@@H]1C(=O)N1CCCN(C2CCC2)CC1` [Example 19, (2R,4S)-2-(4-Cyclobutyl-[1,4]diazepane-1-carbonyl)-4-phenoxy-pyrrolidine-1-carboxylic acid tert-butyl ester]: the figures for the Ki (in assay [1]; on human H3 receptor [2] (read-out: Human H3 Ki)) were 5 nM and 9 nM, respectively.
In the case of `CC(C)(C)OC(=O)N1C[C@@H](Oc2cccc(Cl)c2)C[C@@H]1C(=O)N1CCCN(C2CCC2)CC1` [Example 20, (2R,4S)-4-(3-Chloro-phenoxy)-2-(4-cyclobutyl-[1,4]diazepane-1-carbonyl)-pyrrolidine-1-carboxylic acid tert-butyl ester], the inhibition constant Ki is 12 nM in assay [1] and 4 nM on human H3 receptor [2] (read-out: Human H3 Ki).
With `CC(C)(C)OC(=O)N1C[C@@H](Oc2ccc(Cl)cc2)C[C@@H]1C(=O)N1CCCN(C2CCC2)CC1` [Example 21, (2R,4S)-4-(4-Chloro-phenoxy)-2-(4-cyclobutyl-[1,4]diazepane-1-carbonyl)-pyrrolidine-1-carboxylic acid tert-butyl ester], the figures for the Ki (in assay [1]; on human H3 receptor [2] (read-out: Human H3 Ki)) were 12 nM and 3 nM, respectively.
As to `Cc1cccc(O[C@H]2C[C@H](C(=O)N3CCCN(C4CCC4)CC3)N(C(=O)OC(C)(C)C)C2)c1` [Example 27, (2R,4S)-2-(4-Cyclobutyl-[1,4]diazepane-1-carbonyl)-4-m-tolyloxy-pyrrolidine-1-carboxylic acid tert-butyl ester], the Ki at cloned rat H3 receptors (setting [4]) came to 232 nM; at human H3 receptor [2] (read-out: Human H3 Ki) it was 5 nM.
`N#Cc1ccc(O[C@@H]2CN[C@@H](C(=O)N3CCCN(C4CCC4)CC3)C2)cc1` [Example 64, (3S,5R)-4-[5-(4-Cyclobutyl-[1,4]diazepane-1-carbonyl)-pyrrolidin-3-yloxy]-benzonitrile] gave an inhibition constant (Ki) at cloned rat H3 receptors of 466 nM. In addition, the Kb on rat H3 receptor (setting [5]) was 12.9 nM.
Take `O=C([C@H]1C[C@H](Oc2cccc(F)c2)CN1)N1CCCN(C2CCC2)CC1` [Example 65, (2R,4S)-4-(3-Fluoro-phenoxy)-2-(4-cyclobutyl-[1,4]diazepane-1-carbonyl)-pyrrolidine]: at cloned rat H3 receptors, the affinity, expressed as Ki, was 12 nM. Moreover, at rat H3 receptor (setting [5]), the Kb is 7.41 nM.
As to `O=C([C@H]1C[C@H](Oc2ccccc2)CN1)N1CCCN(C2CCC2)CC1` [Example 67, (2R,4S)-4-Phenoxy-2-(4-cyclobutyl-[1,4]diazepane-1-carbonyl)-pyrrolidine], the values for the inhibition constant Ki at cloned rat H3 receptors (setting [4]) and on human H3 receptor [2] were 502 nM and 5 nM, respectively. Also, the Kb at rat H3 receptor (setting [5]) was 57.5 nM. For the same molecule, the “Human pA2” value at human H3 receptor [3] was determined as 8.09.
Consider `O=C([C@H]1C[C@H](Oc2cccc(Cl)c2)CN1)N1CCCN(C2CCC2)CC1` [Example 68, (2R,4S)-4-(3-chloro-phenoxy)-2-(4-cyclobutyl-[1,4]diazepane-1-carbonyl)-pyrrolidine], for which the “Rat pA2” value on rat H3 receptor (setting [6]) is given as 8.59.
For `O=C([C@H]1C[C@H](Oc2ccc(Cl)cc2)CN1)N1CCCN(C2CCC2)CC1` [Example 69, (2R,4S)-4-(4-Chloro-phenoxy)-2-(4-cyclobutyl-[1,4]diazepane-1-carbonyl)-pyrrolidine], at cloned rat H3 receptors (setting [4]), the Ki was found to be 18 nM. The “Rat pA2” value at rat H3 receptor (setting [6]) came out at 8.30.
Regarding `CSc1ccc(O[C@@H]2CN[C@@H](C(=O)N3CCCN(C4CCC4)CC3)C2)cc1` [Example 71, (2R,4S)-4-(4-Methylsulfanyl-Phenoxy)-2-(4-cyclobutyl-[1,4]diazepane-1-carbonyl)-pyrrolidine], the inhibition constant Ki on cloned rat H3 receptors is 54 nM; at human H3 receptor [2], 3 nM. The Kb at rat H3 receptor (setting [5]) is 10.7 nM; at human H3 receptor [3] (read-out: Human pA2 (converted)) it was 2.04 nM.
Take `O=C([C@H]1C[C@H](Oc2ccc(F)cc2)CN1)N1CCCN(C2CCCC2)CC1` [Example 82, (2R,4S)-2-(4-Cyclopentyl-[1,4]diazepane-1-carbonyl)-4-(4-fluoro-phenoxy)-pyrrolidine]: at cloned rat H3 receptors (setting [4]), the inhibition constant Ki amounted to 18 nM. The “Rat pA2” value at rat H3 receptor (setting [6]) was 8.21.
The molecule `N#Cc1ccc(O[C@@H]2CN[C@@H](C(=O)N3CCCN(C4CCCC4)CC3)C2)cc1` [Example 83, (2R,4S)-4-(4-Cyano-phenoxy)-2-(4-cyclopentyl-[1,4]diazepane-1-carbonyl)-pyrrolidine] registered a Ki on cloned rat H3 receptors of 16 nM. In addition, the “Rat pA2” value at rat H3 receptor (setting [6]) came out at 8.51.
Take `O=C([C@@H]1C[C@@H](Oc2cccc(Cl)c2)CN1)N1CCCN(C2CCC2)CC1` [Example 88, (2S,4R)-4-(3-Chloro-phenoxy)-2-(4-cyclobutyl-[1,4]diazepane-1-carbonyl)-pyrrolidine]: the Ki on cloned rat H3 receptors (setting [4]) was 130 nM.
As for `N#Cc1ccc(O[C@H]2CN[C@H](C(=O)N3CCCN(C4CCC4)CC3)C2)cc1` [Example 94, (2S,4R)-4-(4-Cyano-phenoxy)-2-(4-cyclobutyl-[1,4]diazepane-1-carbonyl)-pyrrolidine], the inhibition constant (Ki) at cloned rat H3 receptors is 150 nM. Further, at rat H3 receptor (setting [5]), the Kb was 110 nM.
For `O=C([C@H]1C[C@H](Oc2ccsc2)CN1)N1CCCN(C2CCC2)CC1` [Example 102, (2R,4S)-2-(4-Cyclobutyl-[1,4]diazepane-1-carbonyl)-4-(thiophen-3-yloxy)-pyrrolidine], the Kb at rat H3 receptor (setting [5]) is 21.9 nM. Besides, on human H3 receptor [2] (read-out: Human H3 Ki), the Ki turned out to be 5 nM. In addition, on human H3 receptor [3], the “Human pA2” value is recorded as 8.65.
`CN1C[C@@H](Oc2ccc(F)cc2)C[C@@H]1C(=O)N1CCCN(C2CCC2)CC1` [Example 110, (2R,4S)-1-Methyl-2-(4-cyclobutyl-[1,4]diazepane-1-carbonyl)-4-(4-fluoro-phenoxy)-pyrrolidine]: the inhibition constant Ki at cloned rat H3 receptors came out at 477 nM. The molecule also had a Kb on rat H3 receptor of 16.6 nM.
Turning to `CC(=O)N1C[C@@H](Oc2ccc(F)cc2)C[C@@H]1C(=O)N1CCCN(C2CCC2)CC1` [Example 120, (2R,4S)-1-[2-(4-Cyclobutyl-[1,4]diazepane-1-carbonyl)-4-(4-fluoro-phenoxy)-pyrrolidin-1-yl]-ethanone], the Ki at cloned rat H3 receptors (setting [4]) came out at 30 nM. On rat H3 receptor (setting [5]), the Kb is 1.62 nM.
Regarding `CSc1ccc(O[C@H]2C[C@H](C(=O)N3CCCN(C4CCC4)CC3)N(C(C)=O)C2)cc1` [Example 121, (2R,4S)-1-[2-(4-Cyclobutyl-[1,4]diazepane-1-carbonyl)-4-(4-methylsulfanyl-phenoxy)-pyrrolidin-1-yl]-ethanone], the Ki is 15 nM at cloned rat H3 receptors (setting [4]) and 2 nM at human H3 receptor [2] (read-out: Human H3 Ki).
`CC(=O)N1C[C@@H](Oc2ccc(Cl)c(C)c2)C[C@@H]1C(=O)N1CCCN(C2CCC2)CC1` [Example 122, (2R,4S)-1-[4-(4-Chloro-3-methyl-phenoxy)-2-(4-cyclobutyl-[1,4]diazepane-1-carbonyl)-pyrrolidin-1-yl]-ethanone]: the inhibitory constant (Ki) on cloned rat H3 receptors (setting [4]) came to 12 nM; on human H3 receptor [2] (read-out: Human H3 Ki), 1 nM.
`CC(=O)N1C[C@@H](Oc2cccc(F)c2)C[C@@H]1C(=O)N1CCCN(C2CCC2)CC1` [Example 131, (2R,4S)-1-[2-(4-Cyclobutyl-[1,4]diazepane-1-carbonyl)-4-(3-fluoro-phenoxy)-pyrrolidin-1-yl]-ethanone]: the values for the Ki at cloned rat H3 receptors and at human H3 receptor [2] were 17 nM and 2 nM, respectively. In addition, the “Rat pA2” value at rat H3 receptor (setting [6]) was 8.22.
Take `CC(=O)N1C[C@@H](Oc2ccsc2)C[C@@H]1C(=O)N1CCCN(C2CCC2)CC1` [Example 134, (2R,4S)-1-[2-(4-Cyclobutyl-[1,4]diazepane-1-carbonyl)-4-(thiophen-3-yloxy)-pyrrolidin-1-yl]-ethanone]: on rat H3 receptor (setting [5]), the Kb was 8.71 nM. Besides, at human H3 receptor [2] (read-out: Human H3 Ki), the Ki stood at 3 nM. At human H3 receptor [3], the “Human pA2” value was determined as 9.28.
Molecule `CC(C)(C)OC(=O)N1C[C@H](OCc2ccc(F)cc2)C[C@@H]1C(=O)N1CCCN(C2CCC2)CC1` [Example 151, (2R,4R)-2-(4-Cyclobutyl-[1,4]diazepane-1-carbonyl)-4-(4-fluoro-benzyloxy)-pyrrolidine-1-carboxylic acid tert-butyl ester] gave a Ki in assay [1] of 34 nM.
`O=C([C@H]1C[C@H](OCc2cccc(F)c2)CN1)N1CCCN(C2CCC2)CC1` [Example 152, (2R,4S)-2-(4-Cyclobutyl-[1,4]diazepane-1-carbonyl)-4-(3-fluoro-benzyloxy)-pyrrolidine]: the Ki was found to be 8 nM on cloned rat H3 receptors (setting [4]) and 4 nM at human H3 receptor [2] (read-out: Human H3 Ki).
Taken in the same sequence, the figures for `O=C([C@H]1C[C@H](OCc2ccc(F)cc2)CN1)N1CCCN(C2CCC2)CC1` [Example 153, (2R,4S)-2-(4-Cyclobutyl-[1,4]diazepane-1-carbonyl)-4-(4-fluoro-benzyloxy)-pyrrolidine] were 13 nM and 3 nM.
In assay [1], `O=C([C@H]1C[C@@H](OCc2cccc(F)c2)CN1)N1CCCN(C2CCC2)CC1` [Example 154, (2R,4R)-2-(4-Cyclobutyl-[1,4]diazepane-1-carbonyl)-4-(3-fluoro-benzyloxy)-pyrrolidine] showed a Ki of 149 nM.
Molecule `O=C([C@H]1C[C@@H](OCc2ccc(F)cc2)CN1)N1CCCN(C2CCC2)CC1` [Example 155, (2R,4R)-2-(4-Cyclobutyl-[1,4]diazepane-1-carbonyl)-4-(4-fluoro-benzyloxy)-pyrrolidine] registered a Ki in assay [1] of 160 nM.
